Publication doi:10.1101/2024.08.19.608619, “Discovery of potent SARS-CoV-2 nsp3 macrodomain inhibitors uncovers lack of translation to cellular antiviral response” (bioRxiv, 2024)
Values after ≈ are worked out from the molar mass of the structure shown. Values joined by “and” are separate entries in the source; they are usually repeats but may differ in a detail not shown here. Identical values can stand only once. Like-named read-outs stand apart in the source and are kept apart here.

How the values were obtained:
[1] = system: SARS-CoV-2, isolate USA-WA1/2020; assay: microbe, parasite or virus in culture; assay type: cell-based; details: HeLa-ACE2 SARS-CoV-2 antiviral effect without P-gp inhibitor; for perc_max_measured: maximum measured response of dose series; for perc_min_measured: minimum measured response of dose series; for EC50: read-out: ec50; for EC90: read-out: ec90
SARS-CoV-2 = assay: Antiviral effect in iPSC-derived pneumocyte system; assay type: cell-based; details: iPSC pneumocytes SARS-CoV-2 antiviral effect; for perc_max_measured: maximum measured response of dose series; for perc_min_measured: minimum measured response of dose series
[2] = Hepatic microsomal stability, HLM; assay type: in vitro ADME, human; details: In vitro human liver microsomal stability; for perc_remaining_no_cofactor: no cofactor
[3] = Hepatic microsomal stability, MLM; assay type: in vitro ADME
iPSC pneumocytes = iPSC pneumocytes cytotoxicity; assay type: cell-based; details: for perc_max_measured: highest measured response of the dose series; for perc_min_measured: lowest measured response of the dose series
From the text: Supplement media-1.zip/Cytotoxicity.csv, table | column: cc10; cc50; perc_min_measured; perc_max_measured

HeLa-ACE2 cells = details: protocol HeLa-ACE2 cytotoxicity; for perc_max_measured: highest measured response of the dose series; for perc_min_measured: lowest measured response of the dose series
LogD = details: pH 7.4; In vitro LogD
in vitro [4] = assay: in vitro; set-up: Cytotoxicity in iPSC-derived pneumocytes, CC50; details: human, ipsc-derived pneumocytes, read-out: 50.0
From the text: Finally, we consider the hypothesis that interferon response triggers ADP-ribosylation, thus profiling the compounds in enhanced and physiologically relevant interferon environments could reveal detectable antiviral effects. […] Furthermore, HeLa-ACE2 cells, and all cancerous cell lines, display defective innate immune response ([1]). As such, we also assess our compound in a primary-like iPSC-derived pneumocyte system (Figure 7C), showing likewise a lack of antiviral activity in this physiologically relevant innate immunity system.

in vitro [5] = details: human, hela-ace2 cells, 50.0
[6] = In vitro kinetic solubility; details: In vitro kinetic solubility, ph 7.4
[7] = Permeability Papp (AB) MDR1/MDCKII; details: for papp_a_to_b_mean / papp_b_to_a_mean / efflux_ratio / perc_recovery_a_to_b_mean / perc_recovery_b_to_a_mean: In vitro MDR1-MDCKII permeability; for papp_a_to_b_mean: A to B; for papp_b_to_a_mean: B to A; for perc_recovery_a_to_b_mean / perc_recovery_a_to_b_inhibitor_mean: recovery A to B; for perc_recovery_b_to_a_mean / perc_recovery_b_to_a_inhibitor_mean: recovery B to A; for perc_recovery_a_to_b_inhibitor_mean / perc_recovery_b_to_a_inhibitor_mean: MDR1-MDCKII
[8] = In vitro mouse liver microsomal stability
[9] = In vitro mouse liver microsomal stability, no cofactor
[10] = In vitro mouse liver microsomal stability; no cofactor
[11] = protocol iPSC pneumocytes cytotoxicity

Structure (SMILES) | perc_max_measured [1] [%] | perc_min_measured [1] | EC50 [1] | EC90 [1] | perc_max_measured (SARS-CoV-2) | perc_min_measured (SARS-CoV-2) | clint [2] [µL/min/mg] | perc_remaining [2] [%] | t_half [2] [min] | perc_remaining_no_cofactor [2] [%] | clint [3, 8] [µL/min/mg] | perc_remaining [3, 8] [%] | t_half [3, 8] [min] | CC50 (HeLa-ACE2 cells) [µM] | cc10 (HeLa-ACE2 cells) [µM] | perc_max_measured (HeLa-ACE2 cells) [%] | perc_min_measured (HeLa-ACE2 cells) [%] | logd (LogD) | CC50 at 24 h (in vitro [5]) [µM] | solubility_mean [6] [µM] | other results
CC(C)[C@@H](Nc1ncnc2[nH]c(-c3cnn(C)c3C#N)cc12)c1ccc2c(c1)S(=O)(=O)CCC2 (single isomer, unassigned) [ASAP-0011147] | 114.163 | 4.545% | 3.51 µM | 13.2 µM | 75.192% | 0.111% | 516.0 | 0.0 | 3.2 | 101.0 | 709.0 | 0.0 | 2.4 | > 20 | > 20.0 | 92.283 | 75.829 | 3.7 | > 20 | 26 (≈ 12.4 µg/mL) | EC50 (SARS-CoV-2): 0.411 µM; EC90 (SARS-CoV-2): 13 µM; perc_remaining_no_cofactor [3, 9]: 106.0%; CC50 (iPSC pneumocytes): > 50 µM; cc10 (iPSC pneumocytes): > 50.0 µM; perc_max_measured (iPSC pneumocytes): 111.987%; perc_min_measured (iPSC pneumocytes): 95.623%; CC50 (in vitro [4]; ASAP-0008327-001=ASAP-0011147-001): > 50 µM; papp_a_to_b_mean ([7]; mean): 1.82 ×10⁻⁶ cm/s; papp_a_to_b_mean ([7]; no inhibitor): 0.087 ×10⁻⁶ cm/s; papp_b_to_a_mean ([7]; no inhibitor): 7.5 ×10⁻⁶ cm/s; efflux_ratio ([7]; no inhibitor): 85.7; perc_recovery_a_to_b_mean ([7]; mean): 54.6%; perc_recovery_a_to_b_mean ([7]; no inhibitor): 82.5%; perc_recovery_b_to_a_mean ([7]; no inhibitor): 96.5%; perc_recovery_a_to_b_inhibitor_mean ([7]; with inhibitor Verapamil): 63.2%; perc_recovery_b_to_a_inhibitor_mean ([7]; with inhibitor Verapamil): 72.3%
CC(C)[C@@H](Nc1ncnc2[nH]c(-c3cnn(C)c3C#N)cc12)c1ccc2c(c1)OCCO2 (racemic) [ASAP-0008275] | 109.522 | 3.811% and 0.0% | 1.73 µM and 1.72 µM | 4.31 µM and 4.23 µM | 108.15% and 116.315% | 1.229% and 8.563% | 74.0 | 25.0 | 22.6 | 111.0 | 218.0 | 3.0 | 7.7 | > 50 | > 50.0 | 136.373 | 77.442 | 3.0 | > 50 | 17 (≈ 7.3 µg/mL) | perc_remaining_no_cofactor [3, 10]: 97.0%; CC50 (iPSC pneumocytes; [11]): > 50 µM; cc10 (iPSC pneumocytes; [11]): 13.408 µM; perc_max_measured (iPSC pneumocytes; [11]): 110.873% and 99.023%; perc_min_measured (iPSC pneumocytes; [11]): 69.382% and 78.095%; CC50 (in vitro [4]; ASAP-0008327-001=ASAP-0008275-001): > 50 µM; papp_a_to_b_mean ([7]; mean): 4.2 ×10⁻⁶ cm/s; perc_recovery_a_to_b_mean ([7]; mean): 36.0%
CC(C)(C)[C@@H](Nc1ncnc2[nH]c(-c3cnn(CC(N)=O)c3)cc12)c1ccc2c(n1)OCCO2 [ASAP-0011162] | 115.43 | 93.464% | > 20 µM | > 20 µM | 91.919% | 11.328% | 42.0 | 49.0 | 39.8 | 107.0 | 30.0 | 59.0 | 56.2 | > 20 | > 20.0 | 99.27 | 66.005 | 2.9 | > 20 | 390 (≈ 180 µg/mL) | EC50 (SARS-CoV-2): 11.4 µM; EC90 (SARS-CoV-2): > 50 µM; perc_remaining_no_cofactor [3, 9]: 109.0%; CC50 (iPSC pneumocytes): > 50 µM; cc10 (iPSC pneumocytes): > 50.0 µM; perc_max_measured (iPSC pneumocytes): 104.975%; perc_min_measured (iPSC pneumocytes): 91.59%; CC50 (in vitro [4]; ASAP-0008327-001=ASAP-0011162-001): > 50 µM; papp_a_to_b_mean ([7]; mean): 1.53 ×10⁻⁶ cm/s; perc_recovery_a_to_b_mean ([7]; mean): 75.9%
CC(C)[C@@H](Nc1ncnc2[nH]c(-c3cnn(C)c3)cc12)c1ccc2c(c1)S(=O)(=O)CCC2 (single isomer, unassigned) [ASAP-0012329] | 119.22 | 72.714% | > 20 µM | > 20 µM | 103.795% | 0.206% | 405.0 | 0.0 | 4.1 | 105.0 | 140.0 | 10.0 | 11.9 | > 20 | > 20.0 | 91.281 | 71.036 | 3.2 | > 20 | 111 (≈ 50 µg/mL) | EC50 (SARS-CoV-2): 7.59 µM; EC90 (SARS-CoV-2): > 50 µM; perc_remaining_no_cofactor [3, 9]: 102.0%; CC50 (iPSC pneumocytes): > 50 µM; cc10 (iPSC pneumocytes): 30.402 µM; perc_max_measured (iPSC pneumocytes): 108.573%; perc_min_measured (iPSC pneumocytes): 85.97%; CC50 (in vitro [4]; ASAP-0008327-001=ASAP-0012329-001): > 50 µM; papp_b_to_a_mean ([7]; no inhibitor): 3.9 ×10⁻⁶ cm/s and 5.0 ×10⁻⁶ cm/s; efflux_ratio ([7]; no inhibitor): 40.3 and 73.5; perc_recovery_a_to_b_mean ([7]; no inhibitor): 72.3% and 98.8% and 68.0%; perc_recovery_b_to_a_mean ([7]; no inhibitor): 79.2% and 106.0%; perc_recovery_a_to_b_inhibitor_mean ([7]; with inhibitor Cyclosporin A): 77.4%; perc_recovery_a_to_b_inhibitor_mean ([7]; with inhibitor Verapamil): 104.0%; perc_recovery_b_to_a_inhibitor_mean ([7]; with inhibitor Cyclosporin A): 63.1%; perc_recovery_b_to_a_inhibitor_mean ([7]; with inhibitor Verapamil): 96.9%
CNCc1cc(-c2cc3c(N[C@@H](c4ccc5c(c4)S(=O)(=O)NCC5)C(C)C)ncnc3[nH]2)co1 [ASAP-0011243] | 99.818 | 81.688% | > 20 µM | > 20 µM | 102.14% | 30.967% | 46.0 | 47.0 | 35.9 | 93.0 | 42.0 | 49.0 | 40.0 | > 20 | > 20.0 | 96.42 | 81.709 | 1.9 | > 20 | 372 (≈ 179 µg/mL) | EC50 (SARS-CoV-2): 30.7 µM; EC90 (SARS-CoV-2): > 50 µM; perc_remaining_no_cofactor [3, 9]: 95.0%; CC50 (iPSC pneumocytes): > 50 µM; cc10 (iPSC pneumocytes): > 50.0 µM; perc_max_measured (iPSC pneumocytes): 101.3%; perc_min_measured (iPSC pneumocytes): 90.486%; CC50 (in vitro [4]; ASAP-0008327-001=ASAP-0011243-001): > 50 µM; papp_a_to_b_mean ([7]; mean): 1.2 ×10⁻⁶ cm/s; perc_recovery_a_to_b_mean ([7]; mean): 76.5%
CC(C)[C@@H](Nc1ncnc2[nH]c(-c3cnn(CC(N)=O)c3)cc12)c1ccc2c(c1)OCCO2 [ASAP-0008288] | 122.799 | 73.654% | > 50 µM | > 50 µM | 96.462% | 23.083% | 99.0 | 20.0 | 16.9 | 103.0 | 41.0 | 54.0 | 41.1 | > 50 | > 50.0 | 128.866 | 114.308 | 0.9 | > 50 | 345 (≈ 154 µg/mL) | EC50 (SARS-CoV-2): 37.1 µM; EC90 (SARS-CoV-2): > 50 µM; perc_remaining_no_cofactor [3, 10]: 87.0%; CC50 (iPSC pneumocytes; [11]): > 50 µM; cc10 (iPSC pneumocytes; [11]): > 50.0 µM; perc_max_measured (iPSC pneumocytes; [11]): 102.79%; perc_min_measured (iPSC pneumocytes; [11]): 85.436%; CC50 (in vitro [4]; ASAP-0008327-001=ASAP-0008288-001): > 50 µM; papp_a_to_b_mean ([7]; mean): 0.9 ×10⁻⁶ cm/s; perc_recovery_a_to_b_mean ([7]; mean): 89.0%
